According to ChEMBL document CHEMBL5241054, “Effective anti-aromatase therapy to battle against estrogen-mediated breast cancer: Comparative SAR/QSAR assessment on steroidal aromatase inhibitors” (Eur J Med Chem, 2020):

Target: T1, Aromatase (Homo sapiens, UniProt P11511)
T1 sequence (P11511 whole entry): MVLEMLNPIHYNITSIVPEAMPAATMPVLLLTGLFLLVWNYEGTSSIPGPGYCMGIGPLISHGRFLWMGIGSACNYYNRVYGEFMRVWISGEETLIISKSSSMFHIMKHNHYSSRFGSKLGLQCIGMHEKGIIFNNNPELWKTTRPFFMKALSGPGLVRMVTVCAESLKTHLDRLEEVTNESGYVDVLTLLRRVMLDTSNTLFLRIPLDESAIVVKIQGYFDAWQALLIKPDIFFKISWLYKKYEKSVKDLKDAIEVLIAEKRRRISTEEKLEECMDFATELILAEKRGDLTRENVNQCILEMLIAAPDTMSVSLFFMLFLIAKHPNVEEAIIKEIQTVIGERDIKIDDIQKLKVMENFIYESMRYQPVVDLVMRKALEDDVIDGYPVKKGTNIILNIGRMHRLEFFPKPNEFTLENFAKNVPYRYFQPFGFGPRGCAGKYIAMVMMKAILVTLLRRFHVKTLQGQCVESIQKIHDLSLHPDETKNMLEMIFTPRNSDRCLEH

Row | SMILES | IC50 [nM]
1 | C[C@]12CC[C@H]3[C@@H](CCC4=CCCC[C@@]43C(F)F)[C@@H]1CCC2=O | 1200
2 | C[C@]12CC[C@@H]3c4ccc(O)cc4[C@@H](Cc4ccccc4)C[C@H]3[C@@H]1CCC2=O | 3500
3 | CCC1=C[C@@]2(C)C(=CC1=O)CC[C@@H]1[C@@H]2CC[C@]2(C)C(=O)CC[C@@H]12 | 959
4 | C=C[C@@H]1C[C@@H]2[C@H](CC[C@]3(C)C(=O)CC[C@@H]23)[C@@]2(C)CCC(=O)C=C12 | 320
5 | C[C@]12CCC(=O)C=C1[C@H](c1ccccc1)C[C@@H]1[C@@H]2CC[C@]2(C)C(=O)CC[C@@H]12 | 1700
6 | C[C@]12CCC(=O)C=C1C[C@H](Cc1ccccc1)[C@@H]1[C@@H]2CC[C@]2(C)C(=O)CC[C@@H]12 | 44.5
7 | CCCCC1C[C@H]2[C@@H]3CC[C@H](O)[C@@]3(C)CC[C@@H]2[C@@]2(C)C=CC(=O)C=C12 (some centres undefined) | 64
8 | C[C@]12CCC(=O)C=C1C[C@@H](CCc1ccccc1)[C@@H]1[C@@H]2CC[C@]2(C)C(=O)CC[C@@H]12 | 138
9 | C#C[C@H](O)[C@]12CCCC=C1CC[C@@H]1[C@@H]2CC[C@]2(C)C(=O)CC[C@@H]12 | 61900
10 | CC(=O)O[C@@H]1C(=O)C2=CC(=O)CC[C@]2(C)[C@H]2CC[C@]3(C)C(=O)CC[C@H]3[C@H]12 | 5300
11 | C[C@]12CCC(=O)C=C1[C@H](O)C(N=[N+]=[N-])[C@@H]1[C@@H]2CC[C@]2(C)C(=O)CC[C@@H]12 (some centres undefined) | 3030
12 | CCCCC[C@@H]1C[C@@H]2[C@H](CC[C@]3(C)C(=O)CC[C@@H]23)[C@@]2(C)CCC(=O)C=C12 | 230
13 | CCC1C[C@H]2[C@@H]3CC[C@H](O)[C@@]3(C)CC[C@@H]2[C@@]2(C)C=CC(=O)C=C12 (some centres undefined) | 61.9
14 | C[C@]12CC[C@H]3[C@@H](CC=C4C(=O)CCC[C@@]43C=O)[C@@H]1CCC2=O | 27000
15 | C[C@]12CCC(=O)C(Sc3ccccc3)=C1CC[C@@H]1[C@@H]2CC[C@]2(C)C(=O)CC[C@@H]12 | 180
16 | C[C@]12CCC(=O)c3c1c(nn3Cc1ccc([N+](=O)[O-])cc1)C[C@@H]1[C@@H]2CC[C@]2(C)C(=O)CC[C@@H]12 | 658
17 | C#C[C@]12CCC(=O)C=C1CC[C@@H]1[C@@H]2CC[C@]2(C)C(=O)CC[C@@H]12 | 1000
18 | CCC[C@]12CCC(=O)C=C1CC[C@@H]1[C@@H]2CC[C@]2(C)C(=O)CC[C@@H]12 | 100000
19 | CC(C)[C@H]1C[C@@H]2[C@H](CC[C@]3(C)C(=O)CC[C@@H]23)[C@@]2(C)CCC(=O)C=C12 | 1400
20 | C[C@H]1C[C@@H]2[C@H](CC[C@]3(C)C(=O)CC[C@@H]23)[C@@]2(C)CCCC=C12 | 37
21 | C[C@]12CC[C@H]3[C@@H](CC(=O)C4=CC(=O)CC[C@@]43C)[C@@H]1CC[C@@H]2OC(=O)CBr | 42000
22 | C[C@]12CC[C@H]3[C@@H](CC=C4C(=O)CCC[C@@]43C)[C@@H]1CC[C@@H]2O | 10000
23 | CCCC1=C[C@@]2(C)C(=CC1=O)CC[C@@H]1[C@@H]2CC[C@]2(C)C(=O)CC[C@@H]12 | 1750
24 | C[C@]12CC[C@@H]3c4cc(F)c(O)cc4CC[C@H]3[C@@H]1CC[C@@H]2O | 76900
25 | CCCCO[C@H]1C[C@@H]2[C@H](CC[C@]3(C)C(=O)CC[C@@H]23)c2ccc(O)cc21 | 170000
26 | C[C@]12CC[C@@H]3C4CCC=CC4=CC(=O)[C@H]3[C@@H]1CCC2=O (some centres undefined) | 33000
27 | CC(=O)O[C@@H]1CCC[C@@]2(CO)C1=CC[C@@H]1[C@@H]2CC[C@]2(C)C(=O)CC[C@@H]12 | 11000
28 | CCCCCCC[C@@H]1C[C@@H]2[C@H](CC[C@]3(C)C(=O)CC[C@@H]23)[C@@]2(C)C=CC(=O)C=C12 | 60
29 | CCCCC[C@@H]1C[C@@H]2[C@H](CC[C@]3(C)C(=O)CC[C@@H]23)[C@@]2(C)CCCC=C12 | 12000
